Laboratory results: ChEMBL document CHEMBL1135901, “Molecular dynamics and free energy analyses of cathepsin D-inhibitor interactions: insight into structure-based ligand design” (J Med Chem, 2002)

These compounds were tested against Cathepsin D (Homo sapiens, UniProt P07339) (assay: Inhibitory activity of compound against human Cathepsin D).
Chain of Cathepsin D (P07339 65-162 limits assumed): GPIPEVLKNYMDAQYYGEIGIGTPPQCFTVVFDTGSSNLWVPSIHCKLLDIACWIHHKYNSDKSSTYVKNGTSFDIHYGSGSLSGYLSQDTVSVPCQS
Chain of Cathepsin D (P07339 169-412 limits assumed): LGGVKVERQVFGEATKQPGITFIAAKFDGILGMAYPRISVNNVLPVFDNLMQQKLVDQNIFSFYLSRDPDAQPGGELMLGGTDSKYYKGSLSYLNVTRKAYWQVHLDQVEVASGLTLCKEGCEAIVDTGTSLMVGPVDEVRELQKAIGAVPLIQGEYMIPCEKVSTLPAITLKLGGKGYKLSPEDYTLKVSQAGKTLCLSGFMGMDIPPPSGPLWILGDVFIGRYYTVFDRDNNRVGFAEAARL

Compound	Ki [nM]
O=C(/C=C/c1c(Cl)cccc1Cl)N[C@@H](Cc1ccccc1)[C@@H](O)CN(CCc1cccs1)C(=O)CCc1ccc(Cl)c(Cl)c1	~10000
O=C(COc1ccc(Cl)cc1Cl)N[C@@H](Cc1ccccc1)[C@@H](O)CN(CCc1ccc2c(c1)OCO2)C(=O)CCN1C(=O)c2ccccc2C1=O	3
COc1cc(Br)c(C(=O)N[C@@H](Cc2ccccc2)[C@@H](O)CN(CCc2ccc(Cl)cc2Cl)C(=O)CCN2C(=O)c3ccccc3C2=O)cc1OC	5.2
O=C(COc1c(Cl)cc(Cl)cc1Cl)N[C@@H](Cc1ccccc1)[C@@H](O)CN(CCc1ccc2c(c1)OCO2)C(=O)CCN1C(=O)c2ccccc2C1=O	73
O=C(COc1cc(Cl)c(Cl)cc1Cl)N[C@@H](Cc1ccccc1)[C@H](O)CN(CCc1ccc2c(c1)OCO2)C(=O)CCN1C(=O)c2ccccc2C1=O	> 5000
O=C(/C=C/c1c(Cl)cccc1Cl)N[C@@H](Cc1ccccc1)[C@@H](O)CN(CCc1ccccn1)C(=O)COc1c(Cl)cc(Cl)cc1Cl	> 100000
